The source of these data is article PMC10285648, “iTAG an optimized IMiD-induced degron for targeted protein degradation in human and murine cells” (iScience, 2023).

A word on the DC50: it is the concentration giving 50% degradation.

Holding throughout (format): cell-based, human
The subject of one assay is cMYC-EGFP-DCD23. Briefly: Degradation of cMYC-EGFP-DCD23 in HMEC (flow cytometry, western blotting). The text has this:
To systematically delineate the optimal DCD/degrader combination for targeted protein degradation, we undertook a matrix approach evaluating all 23 DCD tags against 6 small molecule degraders. […] To control for any potential off-target effects of the IMiD/CeLMOD agents that could indirectly affect the target of interest, we designed controls in which the specific DCD and the EGFP sequences were interspaced by a P2A ribosomal “skipping” sequence,[32] leading to separate translation of the DCD and the target protein (Figure 1A). These constructs were then inserted into a doxycycline-inducible lentiviral vector system and stably expressed in hTERT immortalized human mammary epithelial cells (HMEC), a suitable model to assess the functional consequences of cMYC degradation. cMYC was tagged at the C-terminus end for the initial screening experiments.
Figure 1 Design and experimental evaluation of the DCD tags (A) Representation of the experimental pipeline used to evaluate the different DCD constructs. […] Median EGFP intensity was measured in each condition using flow cytometry (3 independent experiments, normalized to the control and represented as mean ± SD). […] The protein lysates were probed for cMYC levels using western blotting. […] Target loss was evaluated either by measuring EGFP median intensity using flow cytometry or western blotting for cMYC protein (3 independent experiments, normalized to the control and represented as mean ± SD). […] Target loss was evaluated as in (D) (3 independent experiments, normalized to the control and represented as mean ± SD). […] Protein lysates were collected and probed for cMYC and p21 using western blotting. […] Protein lysates were collected and probed for cMYC and p21 using western blotting. […] These were left out as controls with no test substance.
Following degrader treatment cells were collected and DAPI was added to the cell suspension at 1 μg/mL to allow the exclusion of dead cells. EGFP signal was measured using BD LSR II flow cytometer (BD Biosciences). FlowJo 10 Software (FlowJo) was used for data processing.
Cells were lysed with SDS lysis buffer (2% SDS, 10% Glycerol, 50mM Tris pH 6.8) and boiled at 95°C for 30min. Protein concentration was measured using Pierce BCA Protein Assay Kit (ThermoFischer) following manufacturer’s recommendations. Samples were ran in NuPAGETM 10% Bis-Tris Midi electrophoresis gels (Invitrogen) using NuPAGETM MES SDS running buffer (ThermoFischer Scientific).
For western blotting membranes were blocked in a solution of 5% (w/v) bovine serum albumin (BSA; Sigma-Aldrich) dissolved in TBS-0.1% Tween 20 (Sigma-Aldrich) then incubated at 4°C overnight with the primary antibodies diluted in 5% (w/v) BSA/TBS-T. The membranes where then washed and incubated with anti-mouse and/or anti-rabbit secondary antibodies (LI-COR Biosciences) for 2h at RT diluted in 5% (w/v) BSA/TBS-T then washed and imaged using the LI-COR Odyssey (LI-COR Biosciences). Images were analyzed using Image Studio Lite software (LI-COR Biosciences).
In general terms: A flow cytometer gives signals particle by particle.

A further assay has as its system DCD23-EGFP-KRAS^[G12V]. In words: Western blotting for KRAS G12V and p-MEK1(T292) in HMEC. The conditions noted are these: 10uM, 48h. As to the method:
Figure 2 Degradation of cytoplasmic and nuclear targets using iTAG (A) HMEC cells expressing N-terminally tagged DCD23-EGFP-KRAS^[G12V], DCD23-EGFP-EZH2, DCD23-EGFP-cMYC or their corresponding P2A control were induced with doxycycline for 24h then treated with either DMSO or the different indicated drugs at a concentration of 10uM for 4h. Median EGFP intensity was measured in each condition using flow cytometry and normalized values were represent in the Log2 Fold change relative to the DMSO control. (B) HMEC cells expressing Dox inducible C-terminally tagged KRAS^[G12V]-EGFP-DCD23, EZH2-EGFP-DCD23 or their corresponding P2A control were induced with doxycycline for 24h then treated with either DMSO or the different indicated drugs at a concentration of 10uM for 4h. Median EGFP intensity was measured in each condition using flow cytometry and normalized values were represent in the Log2 Fold Change relative to the DMSO control. […]
We then analyzed the functional consequences of KRAS^[G12V]-induced degradation. […] Subsequently, we analyzed the functional consequences of KRAS^[G12V]-induced degradation. […]
Cells were lysed with SDS lysis buffer (2% SDS, 10% Glycerol, 50mM Tris pH 6.8) and boiled at 95°C for 30min. Protein concentration was measured using Pierce BCA Protein Assay Kit (ThermoFischer) following manufacturer’s recommendations. […]
(In general: Immunoblotting shows a protein as a band on a membrane.)

Another assay deals with FLuc-EGFP-DCD23. In words: In vitro luciferase and EGFP signal in MDA-MB-231 (FLuc-EGFP-DCD23). The conditions noted are these: MDA-MB-231, in vitro.

As for `O=C1CC[C@H](N2Cc3c(OCc4ccc(CN5CCOCC5)cc4)cccc3C2=O)C(=O)N1` [CC220, Iberdomide], the “c-MYC levels after washout” value in the assay with cMYC-EGFP-DCD23 (10μM 4h, then drug washed out, 24h or 48h) is reported as “restored back to pre-treatment levels”. The “time to significant degradation of c-MYC tagged with DCD23” value with cMYC-EGFP-DCD23 (HMEC, 10uM) was at most 15 min. Moreover, the “p21 levels after degradation of DCD23-tagged cMYC” value in the assay on cMYC-EGFP-DCD23 (HMEC, 10μM, 16h, western blotting) was “restoration of p21 levels”. For the same compound, in the assay on cMYC-EGFP-DCD23 (HMEC, 4h), the DC50 turned out to be 2 nM and the “DCmax at 4h” value is 75%. Besides, in the assay with DCD23-EGFP-KRAS^[G12V], the “MEK1 (T292) phosphorylation after degradation of N-terminally tagged KRAS G12V” value was “concomitant decrease in MEK1 (T292) phosphorylation”. Moreover, in the assay with FLuc-EGFP-DCD23, the “lowest concentration giving decrease in luciferase and EGFP signal” value is at most 0.05 µM; the “time to decrease in luciferase and EGFP signal” value is at most 3 h.
